Test results: ChEMBL document CHEMBL3046929, “Ethyl 4-[2-(6-Methyl-3-pyridyloxy)butyloxy]benzoate, a novel anti-juvenile hormone agent” (2003)
The source made the active and inactive calls. The rule behind the calls is not given here.

How the values were obtained:
Bombyx mori [1] = assay: Anti-juvenile activity against newly molted third-instar larval stage of Bombyx mori Shunrei x shougetsu reared on artificial diet assessed as mortality at 100 ug/larva relative to control; assay type: functional
Bombyx mori [2] = assay: Anti-juvenile activity against newly molted third-instar larval stage of Bombyx mori Shunrei x shougetsu reared on artificial diet assessed as induction of precocious metamorphosis at 10 ug/larva relative to control; assay type: functional
Bombyx mori [3] = assay: Anti-juvenile activity against newly molted fourth-instar larval stage of Bombyx mori Shunrei x shougetsu reared on artificial diet assessed as induction of precocious pupation at 100 ug; assay type: functional, organism-based
Bombyx mori [4] = assay: Anti-juvenile activity against newly molted third-instar larval stage of Bombyx mori Shunrei x shougetsu reared on artificial diet assessed as induction of precocious pupation at 100 ug; assay type: functional, organism-based
Bombyx mori [5] = assay: Anti-juvenile activity against newly molted third-instar larval stage of Bombyx mori Shunrei x shougetsu reared on artificial diet assessed as induction of precocious metamorphosis in presence of juvenile hormone agonist methoprene; assay type: functional
Bombyx mori [6] = assay: Anti-juvenile activity against newly molted fourth-instar larval stage of Bombyx mori Shunrei x shougetsu reared on artificial diet assessed as induction of precocious metamorphosis in presence of juvenile hormone agonist methoprene; assay type: functional
Bombyx mori [7] = assay: Anti-juvenile activity against newly molted fourth-instar larval stage of Bombyx mori Shunrei x shougetsu reared on artificial diet assessed as induction of precocious pupation; assay type: functional, organism-based
Bombyx mori [8] = assay: Anti-juvenile activity against newly molted third-instar larval stage of Bombyx mori Shunrei x shougetsu reared on artificial diet assessed as induction of precocious pupation at 1 to 100 ug/larva; assay type: functional, organism-based
Bombyx mori [9] = assay: Anti-juvenile activity against newly molted third-instar larval stage of Bombyx mori Shunrei x shougetsu reared on artificial diet assessed as induction of precocious metamorphosis at 100 ug/larva relative to control; assay type: functional
Bombyx mori [10] = assay: Anti-juvenile activity against newly molted third-instar larval stage of Bombyx mori Shunrei x shougetsu reared on artificial diet assessed as induction of precocious metamorphosis in presence of 20-hydroxyecdysone; assay type: functional
Bombyx mori [11] = assay: Anti-juvenile activity against newly molted third-instar larval stage of Bombyx mori Shunrei x shougetsu reared on artificial diet assessed as blackening of cuticle measured after third ecdysis; assay type: functional, organism-based
Bombyx mori [12] = assay: Anti-juvenile activity against newly molted third-instar larval stage of Bombyx mori Shunrei x shougetsu reared on artificial diet assessed as induction of precocious metamorphosis at 1 ug/larva relative to control; assay type: functional
Bombyx mori [13] = assay: Anti-juvenile activity against newly molted fourth-instar larval stage of Bombyx mori Shunrei x shougetsu reared on artificial diet assessed as induction of precocious metamorphosis in presence of 20-hydroxyecdysone; assay type: functional

Structure (SMILES)	Activity (Bombyx mori [2]) [%]	Activity (Bombyx mori [3])	Activity (Bombyx mori [4])	other results
Cc1ccc(OCCOc2cccc(Cl)c2)cn1	0	–	–	mortality (Bombyx mori [1]): 100%
CCC(COc1ccc(Cl)cc1)Oc1ccc(C)nc1 (stereo unspecified)	–	inactive	inactive	–
CCOC(=O)c1ccc(OCC(CC)Oc2ccc(C)nc2)cc1 (stereo unspecified)	40	–	–	Activity (Bombyx mori [5]): 0%; Activity (Bombyx mori [6]): 0%; Activity (Bombyx mori [7]): inactive; Activity (Bombyx mori [8]): inactive; Activity (Bombyx mori [9]): 83%; Activity (Bombyx mori [10]): 90%; Activity (Bombyx mori [11]): Active; Activity (Bombyx mori [12]): 0%; Activity (Bombyx mori [13]): 84%
CCOC(=O)c1cccc(OCC(CC)Oc2ccc(C)nc2)c1 (stereo unspecified)	–	inactive	inactive	–
CCOC(=O)c1ccc(OCC(CC)OC(=O)C(C)(C)C)cc1 (stereo unspecified)	23	–	–	Activity (Bombyx mori [7]): inactive; Activity (Bombyx mori [9]): 0%; Activity (Bombyx mori [12]): 0%
CCc1cccc(OCC(CC)Oc2ccc(C)nc2)c1 (stereo unspecified)	–	inactive	inactive	–
CCC(COc1cccc(Cl)c1)Oc1ccc(C)nc1 (stereo unspecified)	–	inactive	inactive	–
CCc1ccc(OCC(CC)Oc2ccc(C)nc2)cc1 (stereo unspecified)	–	inactive	inactive	–
